Measurements reported in ChEMBL document CHEMBL1201862, “PubChem BioAssay data set” (2004).
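Briefly, cells in 96-well plates were exposed to five compound concentrations for 48 h, and endpoints were estimated by linear interpolation. GI50: concentration for 50% inhibition of growth.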 The source made the active and inactive calls. Cut-off read from the data, not from the text of the source: active = GI50 up to about 1.1 µM and inactive = higher.

Columns and labels:
Experiment in all cases: NCI anticancer screen, dose series, 48 h
ACHN = system: ACHN
RXF 393 = system: RXF 393
RPMI-8226 = system: RPMI-8226
MOLT-4 = system: MOLT-4
HL-60 = system: HL-60
OVCAR-4 = system: OVCAR-4
KM12 = system: KM12
NCI-H226 = system: NCI-H226
SW-620 = system: SW-620
HT-29 = system: HT-29
NCI-H460 = system: NCI-H460
M19-MEL = system: M19-MEL
NCI-H522 = system: NCI-H522
K562 = system: K562
UACC-257 = system: UACC-257
IGROV-1 = system: IGROV-1
SK-OV-3 = system: SK-OV-3
XF498 = system: XF498
SNB-19 = system: SNB-19
U-251 = system: U-251
DLD-1 = system: DLD-1
SK-MEL-28 = system: SK-MEL-28
KM-20L2 = system: KM-20L2
UACC-62 = system: UACC-62
UO-31 = system: UO-31
LOX IMVI = system: LOX IMVI
TK-10 = system: TK-10
A549 = system: A549
HOP-62 = system: HOP-62
HCT-116 = system: HCT-116
EKVX = system: EKVX
SF-539 = system: SF-539
M14 = system: M14
OVCAR-3 = system: OVCAR-3
SK-MEL-2 = system: SK-MEL-2
NCI-H23 = system: NCI-H23
DMS-273 = system: DMS-273
DMS-114 = system: DMS-114
HOP-92 = system: HOP-92
Malme-3M = system: Malme-3M
OVCAR-5 = system: OVCAR-5
SNB-75 = system: SNB-75
SN12C = system: SN12C
LXFL 529 = system: LXFL 529
A498 = system: A498
SF-268 = system: SF-268
COLO 205 = system: COLO 205
SR = system: SR
SNB-78 = system: SNB-78
HCC 2998 = system: HCC 2998
RXF 631 = system: RXF 631
SF-295 = system: SF-295
SK-MEL-5 = system: SK-MEL-5
CAKI-1 = system: CAKI-1
CCRF-CEM = system: CCRF-CEM

Measured: GI50

O=[N+]([O-])c1nc(-c2ccccn2)[nH]c1[N+](=O)[O-]
inactive: ACHN 64.3 µM | RXF 393 76.7 µM | RPMI-8226 > 100 µM | MOLT-4 39.2 µM | HL-60 30.1 µM | OVCAR-4 44.2 µM | KM12 > 100 µM | NCI-H226 74.1 µM | SW-620 66.2 µM | HT-29 47.5 µM | NCI-H460 36.6 µM | M19-MEL 57.7 µM | NCI-H522 18.6 µM | K562 > 100 µM | UACC-257 53.2 µM | IGROV-1 > 100 µM | SK-OV-3 > 100 µM | XF498 > 100 µM | SNB-19 > 100 µM | U-251 55.2 µM | DLD-1 70.5 µM | SK-MEL-28 54.7 µM | KM-20L2 39.6 µM | UACC-62 26.3 µM | UO-31 70.3 µM | LOX IMVI 68.7 µM | TK-10 > 100 µM | A549 53.8 µM | HOP-62 > 100 µM | HCT-116 22.3 µM | EKVX > 100 µM | SF-539 39.6 µM | M14 80.5 µM | OVCAR-3 59.2 µM | SK-MEL-2 > 100 µM | NCI-H23 42.4 µM | DMS-273 65.8 µM | DMS-114 19 µM | HOP-92 > 100 µM | Malme-3M 57.4 µM | OVCAR-5 > 100 µM | SNB-75 64 µM | SN12C 71.6 µM | LXFL 529 89.1 µM | A498 > 100 µM | SF-268 43.6 µM | COLO 205 45.5 µM | SR 32.2 µM | SNB-78 > 100 µM | HCC 2998 96.4 µM | RXF 631 57.8 µM | SF-295 > 100 µM | SK-MEL-5 79.3 µM | CAKI-1 57.7 µM | CCRF-CEM 33.3 µM
